Experimental findings from patent publication US20240108618A1, “KRAS G12C INHIBITOR DOSING REGIMENS” (Eli Lilly and Company, priority 2022, published 2024) are described below.

This series is described as follows: NCT04956640 Phase 1b Cohort C2 (with cetuximab) safety: treatment-emergent adverse events. From the text: A “DLT” is defined as any of the treatment-emergent adverse event (TEAEs), as defined by the National Cancer Institute's Common Terminology Criteria for Adverse Events, version 5.0 (NCI CTCAE v5.0), deemed clinically significant and occurring during the first 21 days of study drug per dose level per patient, unless the adverse event (AE) can be clearly related to the patient's underlying disease, other medical condition, or concomitant medications including any AEs attributed by the Investigator to the combination agent alone. A TEAE is defined as an AE that starts or worsens on or after the date of the first dose of study drug (for example on Study Day 1) through 28 days (+14 days window) after the date of the last dose of study drug or the first date starting new anticancer therapy, whichever is earlier. A Serious TEAE is defined as an TEAE that is grade 3 or higher based on severity grade assignment as defined by the National Cancer Institute's Common Terminology Criteria for Adverse Events, version 5.0 (NCI CTCAE v5.0). A Fatal TEAE is defined as an TEAE that is grade 5 based on severity grade assignment as defined by the National Cancer Institute's Common Terminology Criteria for Adverse Events, version 5.0 (NCI CTCAE v5.0). […]

In the case of `C=CC(=O)N1CCN2C(=O)c3cc(F)c(-c4ccc(F)c5sc(N)c(C#N)c45)c(Cl)c3OCC[C@H]2C1` (single isomer, unassigned) [Formula I], the DLT result (100 mg BID) is “One DLT, a grade 3 ALT/AST ratio increase”. Besides, the “permanent discontinuation due to TRAEs” value (in vivo) is on record as “No Phase 1b Cohort C2 patient permanently discontinued”.
